Source: patent US5360925A, “Dual inhibitors of no synthase and cyclooxygenase, process for their preparation and therapeutical compositions containing them” (priority 1992, dated 1994)

Legend:
constitutive NO synthase = biological target: T1, constitutive NO synthase (Rattus norvegicus, UniProt Q62600); assay: In vitro effect on constitutive NO synthase in the isolated rat aorta; format: cell-based; conditions: isolated rat aorta with endothelium; reversal of carbachol relaxation; PE 1 μM; read-out: Test on constitutive NO synthase IC50
T1 construct: Preparations of isolated rat aorta with endothelium; from tissue; host or cells: isolated thoracic aorta rings with endothelium, Sprague Dawley rat
T1 sequence (Q62600 2-1202 limits assumed): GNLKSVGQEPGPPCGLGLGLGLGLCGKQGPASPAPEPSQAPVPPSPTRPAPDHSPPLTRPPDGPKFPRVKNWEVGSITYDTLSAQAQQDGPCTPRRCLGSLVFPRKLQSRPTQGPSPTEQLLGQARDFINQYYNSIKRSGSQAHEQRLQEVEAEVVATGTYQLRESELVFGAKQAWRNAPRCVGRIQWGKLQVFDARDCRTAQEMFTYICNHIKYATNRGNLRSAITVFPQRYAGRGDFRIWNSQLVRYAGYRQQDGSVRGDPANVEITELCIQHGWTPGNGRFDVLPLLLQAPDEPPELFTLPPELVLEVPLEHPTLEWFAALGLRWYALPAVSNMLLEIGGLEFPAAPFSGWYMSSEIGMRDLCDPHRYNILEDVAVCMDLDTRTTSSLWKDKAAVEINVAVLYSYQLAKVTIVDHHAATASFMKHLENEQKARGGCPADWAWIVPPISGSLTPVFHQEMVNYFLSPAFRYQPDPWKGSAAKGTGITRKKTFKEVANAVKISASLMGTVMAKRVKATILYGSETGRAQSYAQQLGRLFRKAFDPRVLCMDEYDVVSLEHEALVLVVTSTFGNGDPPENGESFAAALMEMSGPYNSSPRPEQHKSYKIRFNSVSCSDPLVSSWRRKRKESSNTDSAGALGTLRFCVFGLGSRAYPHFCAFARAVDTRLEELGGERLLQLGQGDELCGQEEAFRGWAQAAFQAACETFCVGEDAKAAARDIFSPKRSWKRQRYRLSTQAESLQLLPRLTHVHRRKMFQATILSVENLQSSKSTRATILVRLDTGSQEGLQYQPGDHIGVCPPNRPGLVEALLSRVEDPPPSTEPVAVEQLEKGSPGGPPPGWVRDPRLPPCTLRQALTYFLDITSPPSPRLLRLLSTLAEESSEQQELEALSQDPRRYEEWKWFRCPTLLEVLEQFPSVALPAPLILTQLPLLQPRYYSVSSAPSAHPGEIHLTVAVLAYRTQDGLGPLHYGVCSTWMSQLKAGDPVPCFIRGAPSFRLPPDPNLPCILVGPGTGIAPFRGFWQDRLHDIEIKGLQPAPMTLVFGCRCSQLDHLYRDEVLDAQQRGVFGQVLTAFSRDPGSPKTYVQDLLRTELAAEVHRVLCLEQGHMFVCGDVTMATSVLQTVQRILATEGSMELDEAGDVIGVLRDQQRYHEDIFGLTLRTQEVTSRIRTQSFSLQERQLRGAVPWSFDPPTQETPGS
Protocol: 1-In vitro effect on constitutive NO synthase in the isolated rat aorta;
Preparations of isolated rat aorta with endothelium were prepared as previously described (M. Auguet, S. Delaflotte, P. E. Chabrier and P. Braquet--Comparative effects of endothelium and phorbol 12-13 dibutyrate in rat aorta, Life Sciences, 1989, 45, 2051-2059).
Male Sprague Dawley rats (270-360 g, Charles River, Paris) were sacrificed by cervical dislocation and the thoracic aorta removed and cleaned of the surrounding tissue. Rings 2 mm wide were suspended in organ baths containing 10 ml of physiological solution (for composition, see below) under a tension of 2 g at 37° C. and gassed with O2 /CO2 (95%/5%). Contractile responses were measured, using force displacement transducers (Slatham UC2) coupled to a Gould 8000 S polygraph. An equilibration period of one hour was allowed before experimentation. Normal physiological solution was composed of (mM): NaCl, 118; KCl, 4.7; CaCl2, 2.5; KH2 PO4, 1.2; MgSO4, 0.6; NaHCO3, 25; glucose, 11. After equilibration in normal medium, the preparation was subjected to a near maximal dose (about 95%) of phenylephrine (PE, 1 μM). When the contraction was stable, carbachol (10 μM) was tested in order to evaluate the presence or absence of endothelium. […]

inducible NO synthase = biological target: T2, inducible NO synthase (Rattus norvegicus, UniProt Q06518); assay: In vitro effect on inducible NO synthase in the isolated rat aorta from endotoxin-shocked animal; format: cell-based; conditions: aorta from endotoxin-treated rats, endothelium disrupted; PE 1 μM; read-out: Test on inducible NO synthase IC50
T2 construct: the compounds were tested on isolated rat aorta from shocked animal; from tissue; host or cells: thoracic aorta rings, endothelium removed, from endotoxin-treated Sprague Dawley rats

[1] = test system: J774 A1 monocyte/macrophage cell line; assay: In vitro effect on nitrite production induced by LPS+INFγ on J774 A1 monocyte/macrophage cell line; format: cell-based, murine
Text: 5-In vitro effect on nitrite production induced by LPS+INFγ on J774 A1 monocyte/macrophage cell line:
Macrophage type cells like J774 A1 cell line are interesting to use since they are important cells in inflammation and express large amount of NO (due to the induction of NO synthase) and cyclooxygenase products. They are activated with lipopolysaccharide (LPS) in presence of interferon γ (INFγ). This assay was used to compare the effects of compounds of the invention with the association of their separated parent compounds.
Murine monocyte/macrophage cells were grown in Dubecco's modified Eagle's medium at 37° C. The cells were plated in 24 well culture plate (NUNC) and were used for experiments at about 2×10^5 cells/plate. The cells were activated with LPS (1 μg/ml) from E. Coli (SO55:B5) and murine recombinant IFNγ (50 U/ml) and then incubated in the presence or absence of the compounds. After 48 h nitrite (NO2 -) levels, which correlate with the activation of NO synthase, were assessed in the culture media by the colorimetric method according to Green et al (L. Green, D. Wagner, J. Glogowski, P. Skipper, J. Wishwok and S. Tannenbaum, Analysis of nitrate, nitrite and [15N] nitrate in biological fluids. Analytical Biochemistry 126, 131-138, 1982).

cyclooxygenase [2] = biological target: T3, cyclooxygenase (Mus musculus, UniProt Q05769); assay: In vitro effect on prostaglandin (6 keto PGF1α) production induced by LPS+IFNγ on J774A1 monocyte/macrophage cell line; format: cell-based, murine; conditions: for effect on release of 6 keto PGF1α: LPS+IFNγ, J774A1 culture media
T3 construct: main cyclooxygenase products produced by J774A1 cell line; endogenous in cells
T3 sequence (Q05769 18-604): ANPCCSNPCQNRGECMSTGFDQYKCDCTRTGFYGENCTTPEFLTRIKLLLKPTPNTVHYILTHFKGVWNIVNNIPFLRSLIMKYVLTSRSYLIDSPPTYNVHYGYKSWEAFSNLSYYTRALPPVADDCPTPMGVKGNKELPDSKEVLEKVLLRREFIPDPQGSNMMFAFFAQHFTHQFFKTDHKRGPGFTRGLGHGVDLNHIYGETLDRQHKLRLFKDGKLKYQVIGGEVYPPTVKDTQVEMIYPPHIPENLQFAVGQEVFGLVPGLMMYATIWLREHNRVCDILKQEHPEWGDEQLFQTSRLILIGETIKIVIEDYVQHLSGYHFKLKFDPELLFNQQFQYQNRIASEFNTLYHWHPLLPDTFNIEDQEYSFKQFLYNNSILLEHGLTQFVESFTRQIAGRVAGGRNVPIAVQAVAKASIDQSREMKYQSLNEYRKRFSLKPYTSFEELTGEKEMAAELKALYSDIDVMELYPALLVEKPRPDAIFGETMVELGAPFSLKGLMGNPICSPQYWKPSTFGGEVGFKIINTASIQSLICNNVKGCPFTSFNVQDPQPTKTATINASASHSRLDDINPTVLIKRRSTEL
Protocol: 6-In vitro effect on prostaglandin production induced by LPS+IFNγ on J774A1 monocyte/macrophage cell line:
Levels of one of the main cyclooxygenase products produced by J774A1 cell line (i.e.: 6 keto PGF1α) the stable metabolite of PGI2 were assessed in the culture media by a specific radioimmunoassay (NEN, Kit NEK 025).

[3] = test system: neuronal death after focal cerebral ischemia; assay: In vivo effect on neuronal death after focal cerebral ischemia in mice; conditions: 3 mg/kg ip, 5 hours after middle cerebral artery occlusion; mean of six animals
Protocol: 9-In vivo effect on neuronal death after focal cerebral ischemia in mice:
Systemic intraperitoneal (ip) administration of the compounds was carried out 5 hours after cortical infarction induced by the occlusion of the middle cerebral artery in male Swiss mice (20-22 g), according to Duverger et al.--Pharmacology of cerebral ischemia in Krieglstein and Oberpichler, Wissenschaftliche Verlagsgesellschaft, Stuttgart, 1990, 409-413. Four days later, the mice were decapitated and their brains removed and frozen to be then sectioned in coronal slices of […] thickness. Area infarction was measured by image analysis. Reduction of infarcted volume was measured and compared with non treated animal. The percentage indicated the mean reduction of infarct from six animals per group--MK 801, a NMDA antagonist was used as a control substance.

[4] = test system: vascular reactivity to methoxamine; assay: In vivo effect on endotoxin treated pithed rat; conditions: endotoxin 300 μg/kg/h, control 79 ± 9, EDTX 278 ± 34
Protocol: 10-In vivo effect on endotoxin treated pithed rat:
As previously reported, the association of an inhibitor of NO synthase and an inhibitor of cyclooxygenase has a synergistic effect to restore the blood pressure and vascular reactivity in an endotoxinic or septic animal.
Male Sprague Dawley rats (body weight 280-320 g) were pithed. One hour after pithing, animals were given endotoxin (EDTX, Escherichia Coli, lipopolysaccharide, O III, B4 =300 μg/kg/h) for 60 minutes. […]

cyclooxygenase [5] = biological target: T4, cyclooxygenase (Oryctolagus cuniculus, UniProt O97554); assay: In vitro effect on arachidonic acid induced aggregation of washed rabbit platelets; format: cell-based; conditions: arachidonic acid 0.5 mM, read-out: IC50 (arachidonic acid induced platelet aggregation)
T4 construct: arachidonic acid induced aggregation of washed rabbit platelets; endogenous in cells; host or cells: washed platelets of male New Zealand rabbits
T4 sequence (O97554 31-606): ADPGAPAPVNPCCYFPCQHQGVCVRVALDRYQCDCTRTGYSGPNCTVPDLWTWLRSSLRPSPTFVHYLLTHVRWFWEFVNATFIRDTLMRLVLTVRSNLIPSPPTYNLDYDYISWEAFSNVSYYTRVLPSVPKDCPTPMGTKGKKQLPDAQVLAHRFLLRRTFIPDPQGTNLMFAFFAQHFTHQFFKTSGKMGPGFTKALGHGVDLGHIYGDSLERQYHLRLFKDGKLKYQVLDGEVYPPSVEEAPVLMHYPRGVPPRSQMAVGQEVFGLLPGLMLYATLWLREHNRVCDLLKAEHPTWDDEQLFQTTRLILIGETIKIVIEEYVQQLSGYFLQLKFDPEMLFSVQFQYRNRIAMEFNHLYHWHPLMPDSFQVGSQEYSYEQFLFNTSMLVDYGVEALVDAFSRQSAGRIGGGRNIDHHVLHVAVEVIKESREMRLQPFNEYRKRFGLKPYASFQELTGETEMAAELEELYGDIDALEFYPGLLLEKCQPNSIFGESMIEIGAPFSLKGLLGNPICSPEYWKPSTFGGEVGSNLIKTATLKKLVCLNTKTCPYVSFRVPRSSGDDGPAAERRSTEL
Protocol: This protocol was used to assay the effect of the compounds on the cyclooxygenase. […] Blood was taken from the auricular artery of male New Zealand rabbit (2.5 kg mean body weight) on ACD (citric acid/sodium citrate/dextrose) as anticoagulant. The washed platelets were prepared and then transferred in the cuvet of the aggregometer (Chronolog aggregometer Coultronics).

## COC(=O)[C@H](CCCNC(N)=N[N+](=O)[O-])NC(=O)c1ccccc1OC(C)=O [Example 16]
Constitutive NO synthase
  IC50: 9 µM
Inducible NO synthase
  IC50: 4 µM

## CC1=C(CC(=O)O)c2cc(F)ccc2/C1=C\c1ccc([S+](C)[O-])cc1.N=C(NCCC[C@H](N)C(=O)O)N[N+](=O)[O-] (stereo not shown) [Example 13]
[1]; 10^-4 M, LPS+INF, J774
  % OF INHIBITION of nitrite production: 71%
[1]; 10^-5 M, LPS+INF, J774
  % OF INHIBITION of nitrite production: 63%
[1]; 10^-6 M, LPS+INF, J774
  % OF INHIBITION of nitrite production: 56%

## NC(=N[N+](=O)[O-])NCCC[C@H](N)C(=O)O [L-NO, N-ω-nitro-L-Arginine, reference compound]
[1]; Mus musculus, J774.A1, activated cells, LPS 1 μg/ml + IFNγ 50 U/ml, 48 h
  IC50: 15 µM
Cyclooxygenase [2]
  effect on release of 6 keto PGF1α: not affected

## COC(=O)[C@@H](N)CCCNC(N)=N[N+](=O)[O-] [L-NAME, N-ω-nitro-L-Arginine methyl ester, reference compound]
Cyclooxygenase [2]
  effect on release of 6 keto PGF1α: not affected

## COC(=O)C(CCCNC(=N)N[N+](=O)[O-])NC(=O)CC1=C(C)C(=Cc2ccc([S+](C)[O-])cc2)c2ccc(F)cc21 (stereo not shown) [Example 17]
[3]
  Reduction of infarct: -69%
[1]; Mus musculus, J774.A1, 10^-4 M, LPS+INF, J774
  inhibition at 100 µM: 73%
[1]; Mus musculus, J774.A1, 10^-5 M, LPS+INF, J774
  inhibition at 10 µM: 57%
[1]; Mus musculus, J774.A1, 10^-6 M, LPS+INF, J774
  inhibition at 1 µM: 49%
Cyclooxygenase [2]; J774.A1, 10^-4 M, LPS+INF, J774A1, read-out: % OF INHIBITION of 6-keto PG F1 production
  inhibition at 100 µM: 92%
Cyclooxygenase [2]; J774.A1, 10^-5 M, LPS+INF, J774A1, read-out: % OF INHIBITION of 6-keto PG F1 production
  inhibition at 10 µM: 83%
Cyclooxygenase [2]; J774.A1, 10^-6 M, LPS+INF, J774A1, read-out: % OF INHIBITION of 6-keto PG F1 production
  inhibition at 1 µM: 74%

## CNC(=N)NCCC[C@H](N)C(=O)O.O=C(O)c1ccccc1O [Example 2]
[4]; dose 30 mg/kg/h
  vascular reactivity to methoxamine DE50: 98 ± 35 µg/kg
[3]
  Reduction of infarct: -55%
[1]; 10^-4 M, LPS+INF, J774
  % OF INHIBITION of nitrite production: 75.5%
[1]; 10^-5 M, LPS+INF, J774
  % OF INHIBITION of nitrite production: 61%
[1]; 10^-6 M, LPS+INF, J774
  % OF INHIBITION of nitrite production: 53%

## CNC(=N)NCCCC(N)C(=O)O.Cc1cccc(Nc2ccccc2C(=O)O)c1C [Example 12]
Constitutive NO synthase
  IC50: 10 µM

## CC(=O)Oc1ccccc1C(=O)O [aspirin, acetylsalicylic acid, reference compound]
[4]; dose 150 mg/kg/h
  vascular reactivity to methoxamine DE50: 136 ± 29 µg/kg
Cyclooxygenase [2]
  effect on release of 6 keto PGF1α: abolished in a dose dependent manner
Cyclooxygenase [5]
  IC50: 200 µM

## C[C@]12N[C@H](Cc3ccccc31)c1ccccc12 [MK 801, reference compound]
[3]
  Reduction of infarct: -51%
